Entries after “also recorded” stand apart in the source; their conditions may differ. One block for each molecule: values may come before it.
Key:
normal rats = experiment: sweep VEP visual acuity in normal rats; format: in vivo, rat; conditions: 0.03-1.6 cpd, vs saline
Source text: Sweep visually evoked potential (sweep VEP, sVEP), which was first introduced by Regan in 1973, has become an important technique to measure visual function. It is an objective method that can be used to assess visual acuity (VA) and contrast sensitivity (CS) in infants, young children and people with special needs. It was adapted to measure VA and CS in animals.
(§1) The recording electrodes were permanently implanted into the right visual cortex of Long Evans rats at lambda and 4.5 mm lateral to the midline, to a depth of 800 microns (layer III/iV). A reference electrode was placed epidurally on the midline 1.2 mm anterior to bregma. All recordings were conducted in awake rats starting at least two weeks after recovery from surgery. During recording the rats were alert and restrained in a home-made restrainer. They were habituated 2-3 times pre-surgery and at least three more times during seven days post-surgery. PowerDiva software from Anthony Norcia (Smith Kettlewell Institute of Visual Sciences) was used for data acquisition and analysis. Similar recording was performed in rabbits (FIG. 11) except the screw electrodes were place on top of the skull.
(§2) Stimuli were presented on a CRT computer monitor and consist of full-field sine-wave gratings at 80% contrast, reversing at 6.25 Hz. VEPs were elicited by horizontally oriented gratings. The display was positioned 24 cm in front of the rat and centered at the vertical meridian. Mean luminance was held constant at 20 cd. For sVEP in normal rats (slides 76-79), one stimulus presentation (one trial) consists of a spatial frequency sweep decreasing from 1.6 to 0.03 cycles/degree in 15 linear steps. A total of 20 trials were collected. Visual acuity (VA) thresholds were estimated using PowerDiva software. For fixed frequency stimulus in optic nerve crushed (ONC) rats (slides 80-83), the spatial frequency was fixed at 0.2 or 0.5 cycles/degree. Each trial lasts for 15 s. A total of 5 trials were collected and the signal powers were calculated.

[1] = test system: rats after blue-light treatment; experiment: contrast sensitivity (sweep VEP) in blue-light treated rats; format: in vivo, rat
Procedure: as §1
One stimulus presentation (one trial) consists of a contrast sweep increasing from 2.5 to 70% in 15 log steps. A total of 20 to 30 trials were collected. Contrast thresholds (CT) were estimated using PowerDiva software. Contrast sensitivity (CS) is calculated as 1/CT.
Blue-light treatment damages photoreceptors in the retina, and has been proposed as a model of age related macular degeneration (ARMD; Wielgus et al., 2010).

[2] = test system: rat hippocampal astrocytes; experiment: [3H]D-serine transport into primary cultures of rat hippocampal astrocytes; format: cell-based; conditions: two-component inhibition curves, FIG. 4
Procedure: (§3) Cell-based assays: the transport of [^3H]L- or D-serine was measured in primary cultures of rat hippocampal astrocytes or in human embryonic kidney (HEK) cells expressing ASCT transporter sub-types. For the astrocyte assays, cells were plated on either 24- or 96-well plates at a density of 50,000 cells per well. For the HEK assays, cells were plated on coated 96-well plates at a density of 80,000 cells/well. Assays were conducted in duplicate at room temperature in assay buffer consisting of: NaCl: 150 mM, KCl: 2 mM; MgCl2: 1 mM; CaCl2: 1 mM; HEPES: Tris buffer: 10 mM, pH7.4. To assess the sodium-dependence of transport, NaCl was replaced in the assay buffer by equimolar choline chloride. Following aspiration of growth medium and 2 washes with assay buffer, cells were incubated with [^3H]L- or D-serine at a final concentration of 1 μM for 5 min (astrocytes) or 1 min (HEK cells), after which the incubation medium was aspirated and the cells washed twice with ice-cold assay buffer. Cells containing radiolabel were solubilized in 100 μl of 1% Triton-X100 and an aliquot counted in a beta counter. IC50 values were determined over a range of at least 6 concentrations and derived from curve-fitting algorithms available in Graph Pad Prism 4.

ASCT1 [3] = molecular target: T1, ASCT1 (Homo sapiens, UniProt P43007); experiment: transport into HEK cells expressing ASCT1; format: cell-based; design: expressed in transfected cells; host or cells: HEK (human embryonic kidney) cells; conditions: for selectivity towards ASCT1: inhibition of [3H]L-serine transport, HEK cells expressing ASCT1 vs ASCT2
T1 sequence (P43007 1-532): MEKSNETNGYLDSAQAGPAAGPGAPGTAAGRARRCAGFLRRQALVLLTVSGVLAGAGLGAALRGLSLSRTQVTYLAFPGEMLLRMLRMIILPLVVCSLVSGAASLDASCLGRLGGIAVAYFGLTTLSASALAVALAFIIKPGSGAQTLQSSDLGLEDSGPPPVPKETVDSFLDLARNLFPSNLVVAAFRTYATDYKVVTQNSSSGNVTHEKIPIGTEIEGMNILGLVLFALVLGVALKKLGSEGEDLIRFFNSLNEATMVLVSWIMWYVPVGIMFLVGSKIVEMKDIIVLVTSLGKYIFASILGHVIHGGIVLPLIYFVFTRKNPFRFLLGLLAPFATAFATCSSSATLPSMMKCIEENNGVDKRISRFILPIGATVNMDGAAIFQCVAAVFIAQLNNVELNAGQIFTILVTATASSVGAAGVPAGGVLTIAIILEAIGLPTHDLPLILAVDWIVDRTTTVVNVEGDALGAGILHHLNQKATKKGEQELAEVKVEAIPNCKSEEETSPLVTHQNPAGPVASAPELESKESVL
Procedure: as §3

ASCT1 [4] = molecular target: T1, ASCT1; conditions: one literature report; cited from earlier work
normal rabbits = experiment: sweep VEP in normal rabbits; format: in vivo, rabbit; conditions: 30 mg/kg, 0.03-1.6 cpd, vs saline
Procedure: as §1
as §2, with “Visual acuity (VA) thresholds were estimated using PowerDiva software. For fixed frequency stimulus in optic nerve crushed (ONC) rats (slides 80-83), the spatial frequency was fixed at 0.2 or 0.5 cycles/degree. Each trial lasts for 15 s.” left out

[5] = test system: NMDA receptor-mediated excitatory postsynaptic currents (EPSCNMDA); experiment: electrophysiological recording of NMDA receptor-mediated EPSCs from rat hippocampal slices; format: cell-based
Procedure: […] thick hippocampal slices were prepared from […] rats using Leica VT1000S-microtome. Slices were perfused with ACSF containing: 121 mM NaCl, 2.5 mM KCl, 2.0 mM Mg2SO4, 2.0 CaCl2, 1 mM NaH2PO4, 26.2 NaHCO3, and 11 mM glucose, which was equilibrated with 5% CO2/95% O2. Experiments were performed in a recording chamber on the stage of an Olympus BX-61wi microscope with infrared DIC optics for visualizing whole-cell patch-clamp recordings. EPSPs were recorded from CA1 pyramidal neurons by stimulating the Schaffer collateral-commissural pathway using a bipolar tungsten electrode. The recording pipettes were filled with regular ICM containing: 120 mM Cs-gluconate, 5 mM NaCl, 10 mM KCl, 0.1 mM CaCl2, 1 mM EGTA, 2 mM MgCl2, 10 mM HEPES, 2 mM Na-ATP, 2 mM Na2-phosphocreatine, and 0.25 mM Na-GTP, pH 7.3 (290 mOsm).
To measure NMDA-mediated EPSCs, extracellular Mg2SO4 was lowered to 0.2 mM and 2 μM NBQX and 100 μM picrotoxin were added in the ACSF. 1 μM 7-CKY (7-chlorokynurenic acid) was added to improve the sensitivity of […] to D-serine.

ONC rat = experiment: fixed-frequency VEP in optic nerve crush (ONC) rats; format: in vivo; conditions: 30 mg/kg, spatial frequency fixed at 0.2 cpd, vs saline
Procedure: as §1
as §2, with “Visual acuity (VA) thresholds were estimated using PowerDiva software. For fixed frequency stimulus in optic nerve crushed (ONC) rats (slides 80-83), the spatial frequency was fixed at 0.2 or 0.5 cycles/degree. Each trial lasts for 15 s.” left out

[6] = test system: long-term potentiation (LTP) in the primary visual cortex; experiment: long-term potentiation (LTP) in primary visual cortex slices; format: cell-based; conditions: rat visual cortex slice
Procedure: Long Term Potentiation (LTP) in primary visual cortex has been used as a cellular model for visual cortex plasticity and has functional consequences on visual evoked responses. NMDA receptors play a critical role in visual cortex LTP induction.
Following decapitation of the rat, the brain was rapidly removed and immersed in ice-cold artificial cerebrospinal fluid (ACSF) containing 124 mM NaCl, 3 mM KCl, 1.25 mM KH2PO4, 3.4 mM CaCl2, 2.5 mM MgSO4, 26 mM NaHCO3, and 10 mM D-glucose. A block of visual cortex was created by removing the frontal ⅔ portion of the brain and the cerebellum. Coronal visual cortex slices of 375 μm were prepared from adult Sprague Dawley (SD) rats using a vibratome (VT 1000 S; Leica). The slices were maintained in an interface recording chamber perfused with preheated ACSF. Slices were continuously perfused with this solution at a rate of 1.00-1.50 ml/min while the surface of the slices was exposed to warm, humidified 95% O2/5% CO2 and maintained at 31±1° C. Visual cortex slices were allowed to recover for 1 hr before recording began. […] This was repeated 2 additional times with a 1 minute intertrain interval, and the level of LTP was recorded for at least 30 min. Changes in amplitude of the synaptic response were used to measure the extent of LTP because it was determined to be the more consistent parameter than the slope of the response. […]

human ASCT2 = molecular target: T2, human ASCT2 (Homo sapiens, UniProt Q15758); experiment: transport into HEK cells expressing ASCT2; format: cell-based
T2 construct: expressed in transfected cells; host or cells: HEK (human embryonic kidney) cells
T2 sequence (Q15758 1-541): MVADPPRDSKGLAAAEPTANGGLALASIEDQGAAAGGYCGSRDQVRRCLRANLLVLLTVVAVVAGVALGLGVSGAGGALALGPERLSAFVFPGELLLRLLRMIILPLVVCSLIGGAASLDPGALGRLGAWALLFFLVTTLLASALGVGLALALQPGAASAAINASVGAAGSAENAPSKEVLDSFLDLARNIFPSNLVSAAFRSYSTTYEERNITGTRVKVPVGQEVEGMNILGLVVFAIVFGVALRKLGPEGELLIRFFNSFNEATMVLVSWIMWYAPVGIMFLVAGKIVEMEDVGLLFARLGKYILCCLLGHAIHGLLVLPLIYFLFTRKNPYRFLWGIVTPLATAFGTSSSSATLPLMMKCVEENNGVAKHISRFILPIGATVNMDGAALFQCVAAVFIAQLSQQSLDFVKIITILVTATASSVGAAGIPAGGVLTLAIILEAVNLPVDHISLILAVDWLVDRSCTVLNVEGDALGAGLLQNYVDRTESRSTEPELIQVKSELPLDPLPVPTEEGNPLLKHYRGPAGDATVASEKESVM
Procedure: as §3

ASCT2 = conditions: literature range; cited from earlier work
astrocytes = experiment: [3H]L-serine transport into astrocytes; format: cell-based, rat; conditions: FIG. 6B
Procedure: as §3

Structure (SMILES): N[C@H](C(=O)O)c1ccc(F)cc1 [L-4FPG, L-4-fluorophenylglycine]
visual function (visual acuity) assessed by sweep VEP (normal rats; 10 mg/kg, 40 min after injection, 10 mg/kg): enhance visual function
visual function (visual acuity) assessed by sweep VEP (normal rats; 10 mg/kg, 40 min after injection, listed as L-FPG, 10 mg/kg): enhances visual function
contrast sensitivity ([1]; rats fifty-three weeks after blue-light treatment, 10 mg/kg, 0.575 cpd, vs saline): improved the contrast sensitivity

Structure (SMILES): O=C(O)[C@@H]1C[C@@H](O)CN1 [L-t-4OHPro, L-trans-4-hydroxyproline]
proportion of D-serine transport represented by the component for which the compound showed higher affinity [2]: approximately 60%
selectivity towards ASCT1 (ASCT1 [3]): selectivity towards ASCT1
selectivity towards ASCT1 (ASCT1 [3]; listed as L-trans-4OHPro): selective for ASCT1
reported affinity for ASCT1 (ASCT1 [4]): high affinity

duration of the potentiation effect on EPSCNMDA ([5]; 1000 μM, then control buffer): lasted for one hour
Structure (SMILES): N[C@H](C(=O)O)c1ccc(O)cc1 [L-4OHPG, L-4-hydroxyphenylglycine]
visual function assessed by sweep VEP (normal rabbits): enhances visual function; also recorded: enhanced sweep VEP
percentage increase in the amplitude of EPSCNMDA ([5]; 1000 μM, in presence of 1 μM 7-CKY, representative experiment): 22%
effect on NMDA receptor-mediated EPSCs ([5]; CA1 region of the hippocampus): dose-dependent effects; also recorded: potentiated
visually-evoked signals (power of signals) from the visual cortex (ONC rat): visual enhancement effect; also recorded: enhances visually-evoked signals
visual function (visual acuity) assessed by sweep VEP (normal rats; 30 mg/kg, 30 min after injection, 30 mg/kg): enhance visual function
contrast sensitivity ([1]; rats with damaged retinas following blue-light treatment, FIG. 12 as described in text): significant improvement in contrast sensitivity
effect on LTP evoked by theta burst stimulation [6]: dose-dependently facilitates; also recorded: enhanced LTP in a concentration-dependent manner
effect on LTP with D-amino acid oxidase (D-AAO) in the perfusion medium ([6]; D-AAO): dependent on extracellular D-serine; also recorded: completely prevented

Structure (SMILES): NC(=O)CC[C@H](N)C(=O)O [L-glutamine]
selectivity towards ASCT2 (human ASCT2; inhibition of [3H]L-serine transport, HEK cells expressing ASCT1 vs ASCT2): selectivity towards ASCT2; also recorded: selective for ASCT2
proportion of D-serine transport represented by the component for which the compound showed higher affinity [2]: approximately 40%
reported affinity for ASCT2 (ASCT2): 23 to 70 µM

inhibition of [3H]L-serine transport (human ASCT2; ASCT2-expressing HEK cells, FIG. 6B): completely inhibited
inhibition of [3H]L-serine transport (ASCT1 [3]; ASCT1-expressing HEK cells, FIG. 6B): completely inhibited
Structure (SMILES): N[C@H](CO)C(=O)O [D-serine]
transport of [3H]D-serine into ASCT1-expressing HEK cells (ASCT1 [3]; with and without extracellular sodium, FIG. 6A): transported into ASCT1-expressing HEK cells in a sodium-dependent manner
inhibition of [3H]L-serine transport (astrocytes): completely inhibited

— US9415031B2, “D-serine transporter inhibitors as pharmaceutical compositions for the treatment of visual system disorders” (Allergan, Inc., priority 2011, dated 2016)
